The numbers were not newly measured in US4878891A, “Method for eradicating infectious biological contaminants in body tissues” (Baylor Research Foundation, priority 1987, dated 1989), which cites them from elsewhere.

Structures are written as SMILES.

Series [1] has as its system tumor cells.
Series [2] deals with cutaneous T-cell lymphoma. The note with it: oral; blood fraction exposed to ultraviolet A.
Series [3] deals with viral diseases.
Series [4] deals with tumor. The note with it: injected; several types of tumor induced in mice.
For series [5], the system named is malignant tumors. The note with it: patients given large doses; ultraviolet light.

With `Cc1cn([C@H]2C[C@H](N=[N+]=[N-])[C@@H](CO)O2)c(=O)[nH]c1=O` [3-deoxy-3'-azidothymidine (AZT), 3-deoxy-3'-azidothymidine], the “preventing the proliferation of tumor cells” value in series [1] is reported as “totally ineffective”.

`COc1c2occc2cc2ccc(=O)oc12` [8-methoxypsoralen]: the “control of cutaneous T-cell lymphoma activity” value in series [2] is “could be controlled”. In the case of `CC[C@]1(O)C[C@H]2CN(CCc3c([nH]c4ccccc34)[C@@](C(=O)OC)(c3cc4c(cc3OC)N(C=O)[C@H]3[C@@](O)(C(=O)OC)[C@H](OC(C)=O)[C@]5(CC)C=CCN6CC[C@]43[C@@H]65)C2)C1` [Vincristine], the “treatment of viral diseases” value in series [3] was “ineffective”. Consider `CC1=C(CCC(=O)O)c2cc3[nH]c(cc4nc(cc5[nH]c(cc1n2)c(C)c5C(C)O)C(C)=C4C(C)O)c(C)c3CCC(=O)O` (centres unmarked) [hematoporphyrin], for which the localization in tumors result in series [4] was “localized and fluoresced in several types of tumor”. In series [5], the “red fluorescence in malignant tumors” value was “red fluorescence”.
